# Laboratory results as given in patent US11377496B2, “Targeting agent antibody conjugates and uses thereof” (The Scripps Research Institute, priority 2013, dated 2022).
# “And” between values parts separate entries of the source, which are not always exact repeats. Equal values may be shown once. Read-outs that look alike come from different tables or passages of the source. Where a SMILES comes first, the peptide text is derived from it.
# Experiments:
# cynoPSMA = details: previous reports; cited from earlier work
# mPSMA = mPSMA (Mus musculus, UniProt O35409); details: cited from earlier work
# mPSMA, sequence (O35409 whole entry): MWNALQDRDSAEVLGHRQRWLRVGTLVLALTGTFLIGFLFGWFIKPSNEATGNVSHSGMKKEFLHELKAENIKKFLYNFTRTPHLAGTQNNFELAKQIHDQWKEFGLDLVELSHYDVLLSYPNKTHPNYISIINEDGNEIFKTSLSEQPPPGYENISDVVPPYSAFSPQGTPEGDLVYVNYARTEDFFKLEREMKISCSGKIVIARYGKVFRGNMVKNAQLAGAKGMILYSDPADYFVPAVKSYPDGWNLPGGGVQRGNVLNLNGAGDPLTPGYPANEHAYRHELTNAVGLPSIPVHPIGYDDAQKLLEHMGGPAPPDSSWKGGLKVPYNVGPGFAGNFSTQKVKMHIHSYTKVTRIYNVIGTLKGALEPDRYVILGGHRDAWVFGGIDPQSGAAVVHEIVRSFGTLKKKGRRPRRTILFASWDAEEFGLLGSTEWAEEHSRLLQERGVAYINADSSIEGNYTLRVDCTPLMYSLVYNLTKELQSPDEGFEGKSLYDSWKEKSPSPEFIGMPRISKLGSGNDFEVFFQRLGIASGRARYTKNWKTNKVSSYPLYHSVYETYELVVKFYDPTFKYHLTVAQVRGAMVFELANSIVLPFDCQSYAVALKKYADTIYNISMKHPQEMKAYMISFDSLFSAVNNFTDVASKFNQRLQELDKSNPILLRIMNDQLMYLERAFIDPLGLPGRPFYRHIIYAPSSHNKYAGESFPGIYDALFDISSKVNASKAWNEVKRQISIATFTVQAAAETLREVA
# rhPSMA = target: T1, rhPSMA (Homo sapiens, UniProt Q04609); experiment: PSMA inhibition assay; format: biochemical; details: for RFU: KM measurement; for Relative Fluorescence Units: glutamic acid readout, Amplex Red
# T1 construct: purchased R&D research
# T1 sequence (Q04609 whole entry): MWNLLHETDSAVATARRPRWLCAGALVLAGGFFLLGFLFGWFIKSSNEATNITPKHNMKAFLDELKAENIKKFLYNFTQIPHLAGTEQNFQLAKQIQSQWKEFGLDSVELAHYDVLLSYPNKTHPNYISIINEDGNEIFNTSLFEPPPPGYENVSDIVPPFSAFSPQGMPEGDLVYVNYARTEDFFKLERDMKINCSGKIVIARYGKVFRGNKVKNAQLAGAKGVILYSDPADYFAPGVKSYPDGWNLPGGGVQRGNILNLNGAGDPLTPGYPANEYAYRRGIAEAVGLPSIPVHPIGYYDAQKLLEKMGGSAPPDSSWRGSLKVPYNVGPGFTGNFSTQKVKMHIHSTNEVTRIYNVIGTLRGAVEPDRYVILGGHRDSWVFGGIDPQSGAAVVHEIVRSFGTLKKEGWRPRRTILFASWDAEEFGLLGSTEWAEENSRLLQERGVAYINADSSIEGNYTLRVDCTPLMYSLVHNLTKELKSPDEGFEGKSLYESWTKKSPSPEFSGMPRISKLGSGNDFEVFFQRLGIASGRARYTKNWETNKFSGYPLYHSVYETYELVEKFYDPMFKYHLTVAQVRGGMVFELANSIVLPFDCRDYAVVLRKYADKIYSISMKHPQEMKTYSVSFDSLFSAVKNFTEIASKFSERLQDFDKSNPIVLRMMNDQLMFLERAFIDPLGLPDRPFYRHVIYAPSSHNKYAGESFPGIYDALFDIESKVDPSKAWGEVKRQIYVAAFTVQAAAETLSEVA
# Method: A 10 mM solution of N-acetyl-aspartyl-glutamate (NAAG) in 40 mM NaOH was diluted to 40 μM in Reaction Buffer (0.1 M Tris-HCl, pH=7.5), and the solution was added to a 384 well plate (10 μL per well). For KM measurements and KM negative controls (absence of PSMA), the NAAG solution was serially diluted 2-fold to obtain final NAAG concentrations ranging […]. […] To initiate reactions, 10 μL of rhPSMA ([…] in Reaction Buffer, R&D research) was added to each well. Reaction Buffer (10 μL) was added to the KM control series. The plate was incubated at 37° C. for 30 min, and then heated to 95° C. for 3 min. Levels of glutamic acid were quantified using Amplex® Red Glutamic Acid/Glutamate Oxidase Assay Kit (Invitrogen). Fluorescence intensities were measured using a SpectraMax Gemini EM microplate reader (GMI) with excitation and emission filters of 545 and 590 nm, respectively. Ki values were calculated using the Cheng-Prusoff equation from IC50 and KM values and these values were calculated using GraphPad Prism software. […] All reported data represent the mean of triplicate experiments.
# C4-2 (PSMA+) cells = experiment: In vitro cytotoxicity assays, C4-2 cells with PBMCs, 24 and 48 hours (Example 5); format: cell-based, human
# Method: Peripheral blood mononuclear cells (PBMCs) were purified from fresh healthy human donor blood by conventional Ficoll-Hypaque gradient centrifugation. Purified PBMCs were washed and incubated in flasks in RPMI media with 10% FBS for 1 hours to remove any adherent cells. C4-2 (PSMA+) cells (target cells) were dissociated with 0.05% tryspin/EDTA solution (HyClone) and washed with RPMI with 10% FBS. 1×10^4 target cells were mixed with PBMCs at 1:10 ratio in […], and incubated with different concentrations of conjugated and unconjugated Fabs ([…]) for 24 and 48 hours at 37° C. Cytotoxicity of each well was measured for LDH (lactate dehydrogenase) levels in supernatant using Cytotox-96 non-radioactive cytotoxicity assay kit (Promega). Lysis solution ([…], provided in the same kit) was added to wells with only target cells to get the maximum killing, and spontaneous killing was measured from wells with effector and target cells treated with vehicle ([…]). The absorbance at 490 nm was recorded using SpectraMax 250 plate reader (Molecular Devices Corp.). Percent cytotoxicity was calculated by: % Cytotoxicity=(Absorbanceexpt−Absorbancespontaneous average)/(Absorbancemax killing average−Absorbancespontaneous average)×100
# [1] = Pharmacokinetics in rats, intravenous, sandwich-ELISA; format: in vivo, Sprague Dawley rats; details: rat, 0.5 mg/kg
# Method: We first evaluated the pharmacokinetics of the P-targeting agent antibody conjugate. Male Sprague Dawley rats (Charles River) were injected intravenously at time zero at 1 and 5 mg/kg for P-targeting agent antibody conjugate or 0.5 mg/kg for the unconjugated UCHT1 Fab. Blood was collected at regular intervals to 32 hours and processed to measure drug concentrations using a sandwich-ELISA. […] Also, the small size of P-targeting agent antibody conjugate may be advantageous for penetrating solid tumors.
# C4-2 cells = experiment: Prophylactic mouse xenograft model, C4-2 cells mixed with hPBMCs; format: in vivo, NOD/SCID mice; details: 2 mg/kg IV daily for 10 days from Day 4; monitored 6 weeks
# Method: FIG. 12 depicts in vivo efficacy studies of P-targeting agent antibody conjugate. In the prophylactic model, 1×10^6 C4-2 cells were mixed with 2×10^6 PBMCs (1:2 ratio) in Matrigel and injected SC into the right shoulder of male NOD-SCID mice. P-targeting agent antibody conjugate, unconjugated Fab, or PBS (n=6) were administered at 2 mg/kg everyday for 10 days by IV starting on Day 4. Tumors were monitored by external caliper measurements for regular intervals for 6 weeks.
# We next established a mouse xenograft model to evaluate the in vivo efficacy of P-targeting agent antibody conjugate. Immunodeficient NOD/SCID mice were subcutaneously injected with a mixture of 1×10^6 C4-2 cells and 2×10^6 hPBMCs in matrigel (BD Bioscience). After 4 days, treatment was initiated by injecting 2 mg/kg of drug via the tail vein and continued for 10 days (n=6). In a control group, mice were injected with an unconjugated mixture of P-Phthal (3) and UCHT1 wild-type Fab, and another group of mice was injected with vehicle alone (n=6). Tumor growth was monitored by external caliper measurement. […] After confirming the prophylactic efficacy of P-targeting agent antibody conjugate, we carried a xenograft model in which we delayed treatment until we observed the formation of a palpable tumor. […]
# CD3 = CD3 (Macaca fascicularis, UniProt Q95LI5); experiment: Cyno cross-reactivity of anti-CD3 antibody; format: binding, cynomolgus macaque
# CD3, sequence (Q95LI5 22-198): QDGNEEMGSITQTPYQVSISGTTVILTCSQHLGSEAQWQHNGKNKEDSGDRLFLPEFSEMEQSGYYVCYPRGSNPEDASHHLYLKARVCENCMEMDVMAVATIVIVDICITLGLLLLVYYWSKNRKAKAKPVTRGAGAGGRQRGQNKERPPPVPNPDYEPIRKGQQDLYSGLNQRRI
# CD3, sequence (Q95LI8 22-171 partner): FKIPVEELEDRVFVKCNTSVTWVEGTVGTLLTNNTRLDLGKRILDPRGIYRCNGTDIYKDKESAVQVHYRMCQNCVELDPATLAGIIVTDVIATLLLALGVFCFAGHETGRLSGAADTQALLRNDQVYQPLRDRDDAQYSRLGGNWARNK
# CD3, sequence (Q95LI7 23-181 partner): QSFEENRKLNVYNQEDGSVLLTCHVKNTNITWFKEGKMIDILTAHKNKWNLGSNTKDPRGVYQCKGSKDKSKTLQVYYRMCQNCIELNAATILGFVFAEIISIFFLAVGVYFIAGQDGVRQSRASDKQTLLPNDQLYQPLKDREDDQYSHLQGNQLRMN
# [2] = average of three trials, read-out: Average Ki
# [3] = enzyme-based inhibition assay, read-out: average Ki
Molecule,IC50 (rhPSMA; Trials 1-3),Ki (rhPSMA; [2]) [nM],Relative Fluorescence Units (rhPSMA; inhibitor 0.0000256 μM),Relative Fluorescence Units (rhPSMA; inhibitor 0.000128 μM),Relative Fluorescence Units (rhPSMA; inhibitor 0.00064 μM),Relative Fluorescence Units (rhPSMA; inhibitor 0.0032 μM),Relative Fluorescence Units (rhPSMA; inhibitor 0.016 μM),Relative Fluorescence Units (rhPSMA; inhibitor 0.08 μM),Relative Fluorescence Units (rhPSMA; inhibitor 0.4 μM),Relative Fluorescence Units (rhPSMA; inhibitor 2 μM),Relative Fluorescence Units (rhPSMA; inhibitor 10 μM),Relative Fluorescence Units (rhPSMA; inhibitor 50 μM),Ki (rhPSMA; [3]) [nM],also measured
"O=C(O)CCC(NC(=O)NC(CCC(=O)O)C(=O)O)C(=O)O (stereo not drawn) [DUPA, 2-[3-(1,3-dicarboxypropy)ureidol]pentanedioic acid]",–,–,–,–,–,–,–,–,–,–,–,–,–,inhibition of glutamate carboxy peptidase activity of cynoPSMA (in words) (cynoPSMA): efficiently inhibited; binding to mPSMA (in words) (mPSMA): strongly binds
"CC(=O)N[C@@H](CC(=O)O)C(=O)N[C@@H](CCC(=O)O)C(=O)O [NAAG, N-acetyl-aspartyl-glutamate, reference compound] (Ac-Asp-Glu-OH)",–,–,–,–,–,–,–,–,–,–,–,–,–,RFU (rhPSMA; NAAG 0.15625 μM): 403; RFU (rhPSMA; NAAG 0.3125 μM): 400.6455; RFU (rhPSMA; NAAG 0.625 μM): 422.2; RFU (rhPSMA; NAAG 1.25 μM): 434.8145; RFU (rhPSMA; NAAG 2.5 μM): 447; RFU (rhPSMA; NAAG 5 μM): 480.622; RFU (rhPSMA; NAAG 10 μM): 549.6; RFU (rhPSMA; NAAG 20 μM): 653.474; Km (rhPSMA; substrate NAAG): 0.288 µM
NOCC(=O)NCCOCCOCCNc1cc(NCCOCCOCCNC(=O)CCCCCCCNC(=O)CCC(NC(=O)NC(CCC(=O)O)C(=O)O)C(=O)O)c([N+](=O)[O-])cc1[N+](=O)[O-] (stereo not drawn) [P-DNP],7.28 nM and 4.46 nM and 4.58 nM,0.0482,1650.519,1558,1413.9875,1123.0625,896.8,704.2,622.7,586.843,581.8,525.6755,–,–
NOCC(=O)NCCOCCOCCNC(=O)c1ccc(C(=O)NCCOCCOCCNC(=O)CCCCCCCNC(=O)CCC(NC(=O)NC(CCC(=O)O)C(=O)O)C(=O)O)cc1 (stereo not drawn) [P-Phthal],208 nM and 397 nM and 223 nM,1.98,1609,1592.5445,1633.913,1542.606,1387.603,1274,1021,798.9,688.1815,581.035,2,–
"NOCC(=O)NCCOCCOCCOCCNC(=O)c1ccc(C(=O)NCCCCCCc2cn(CCCC[C@H](NC(=O)N[C@@H](CCC(=O)O)C(=O)O)C(=O)O)nn2)cc1 [P-TriA, (S)-2-(3-((S)-5-(4-(6-(4-(1-(aminooxy)-2-oxo-6,9,12-trioxa-3-azatetradecan-14-ylcarbamoyl)benzamido)hexyl)-1H-1,2,3-triazol-1-yl)-1-carboxypentyl)ureido)pentanedioic acid]",–,0.00478,1619,1499.6145,1259,950.487,817.1,664.949,586.721,562.9,599.969,559.8,0.0048,"Ki (rhPSMA; Trials 1-3, Cheng-Prusoff equation from IC50 and KM, read-out: Ki): 0.00613 nM and 0.0023 nM and 0.00591 nM; enhanced affinity (rhPSMA; compared to P-Phthal): more than 400 fold"
wt-UCHT1,–,–,–,–,–,–,–,–,–,–,–,–,–,"% Cytotoxicity (C4-2 (PSMA+) cells; 24 h, 0.0512 pM): −0.1753%; % Cytotoxicity (C4-2 (PSMA+) cells; 24 h, 0.256 pM): −0.8764%; % Cytotoxicity (C4-2 (PSMA+) cells; 24 h, 1.28 pM): −0.9115%; % Cytotoxicity (C4-2 (PSMA+) cells; 24 h, 6.4 pM): −0.4733%; % Cytotoxicity (C4-2 (PSMA+) cells; 24 h, 32 pM): −0.7537%; % Cytotoxicity (C4-2 (PSMA+) cells; 24 h, 160 pM): −0.4032%; % Cytotoxicity (C4-2 (PSMA+) cells; 24 h, 800 pM): 1.192%; % Cytotoxicity (C4-2 (PSMA+) cells; 24 h, 4000 pM): 1.858%; % Cytotoxicity (C4-2 (PSMA+) cells; 48 h, 0.01024 pM): −0.609%; % Cytotoxicity (C4-2 (PSMA+) cells; 48 h, 0.0512 pM): −1.023%; % Cytotoxicity (C4-2 (PSMA+) cells; 48 h, 0.256 pM): −0.5196%; % Cytotoxicity (C4-2 (PSMA+) cells; 48 h, 1.28 pM): −0.0812%; % Cytotoxicity (C4-2 (PSMA+) cells; 48 h, 6.4 pM): −0.4872%; % Cytotoxicity (C4-2 (PSMA+) cells; 48 h, 32 pM): −1.104%; % Cytotoxicity (C4-2 (PSMA+) cells; 48 h, 160 pM): −0.9419%; % Cytotoxicity (C4-2 (PSMA+) cells; 48 h, 800 pM): 4.872%; circulating half-life [1]: ~1 h; tumor growth (in words) (C4-2 cells): developed rapid tumors; cyno cross-reactivity (in words) (CD3): not sufficiently cyno cross-reactive"
